ChEMBL document CHEMBL1201862, “PubChem BioAssay data set” (2004)
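Results reflect a 48-hour exposure of cells in 96-well plates to compound at five concentrations. GI50 marks 50% less growth.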 Calls of active or inactive are those of the source. Cut-off read from the data, not from the text of the source: active = GI50 up to about 1.1 µM and inactive = higher.

Key:
Experiment in all cases: NCI anticancer screen, dose series, 48 h
MCF7 = test system: MCF7
MDA-MB-435 = test system: MDA-MB-435
SF-539 = test system: SF-539
U-251 = test system: U-251
DU-145 = test system: DU-145
HCT-15 = test system: HCT-15
UACC-62 = test system: UACC-62
HL-60 = test system: HL-60
NCI-H460 = test system: NCI-H460
MOLT-4 = test system: MOLT-4
HOP-62 = test system: HOP-62
OVCAR-5 = test system: OVCAR-5
IGROV-1 = test system: IGROV-1
SK-MEL-28 = test system: SK-MEL-28
T47D = test system: T47D
HCC 2998 = test system: HCC 2998
SF-295 = test system: SF-295
SNB-75 = test system: SNB-75

SMILES	GI50 (MCF7)	GI50 (MDA-MB-435)	GI50 (SF-539)	GI50 (U-251)	GI50 (DU-145)	GI50 (HCT-15) [µM]	GI50 (UACC-62)	GI50 (HL-60)	GI50 (NCI-H460)	GI50 (MOLT-4)	GI50 (HOP-62)	GI50 (OVCAR-5)	GI50 (IGROV-1)	GI50 (SK-MEL-28)	GI50 (T47D)	GI50 (HCC 2998)	GI50 (SF-295)	GI50 (SNB-75)
CN(C)c1ccc(/C=C/c2ccc3ccccc3[n+]2C)cc1	1.64 µM (inactive)	4.21 µM (inactive)	5.24 µM (inactive)	2.38 µM (inactive)	1.67 µM (inactive)	6.65	3.62 µM (inactive)	1.34 µM (inactive)	3.64 µM (inactive)	1.47 µM (inactive)	7.13 µM (inactive)	7.01 µM (inactive)	3.54 µM (inactive)	3.87 µM (inactive)	1.63 µM (inactive)	4.13 µM (inactive)	2.95 µM (inactive)	
O=C1OC(c2ccccc2)=N/C1=C/c1cccs1	> 100 µM (inactive)	> 100 µM (inactive)	27.6 µM (inactive)	59.8 µM (inactive)		36.7		18.8 µM (inactive)	> 100 µM (inactive)	14.5 µM (inactive)	48.5 µM (inactive)	> 100 µM (inactive)	> 100 µM (inactive)	> 100 µM (inactive)		> 100 µM (inactive)	> 100 µM (inactive)	42.4 µM (inactive)
OCC(O)C(O)C(O)C(/C=N\Nc1ncnc2ccc(Br)cc12)=N/Nc1ncnc2ccc(Br)cc12 (stereo not drawn)	34.4 µM (inactive)	12.9 µM (inactive)	8.3 µM (inactive)	3.34 µM (inactive)	5.65 µM (inactive)			3.15 µM (inactive)		2.62 µM (inactive)	7.16 µM (inactive)	16.7 µM (inactive)	4.09 µM (inactive)	45.9 µM (inactive)	3.2 µM (inactive)		23 µM (inactive)	24.4 µM (inactive)
C/C=C1\CC(C(=O)OCC)CCCCCCC1=O (stereo not drawn)	> 100 µM (inactive)	> 100 µM (inactive)	> 100 µM (inactive)	> 100 µM (inactive)	> 100 µM (inactive)	> 100	59.2 µM (inactive)	51.1 µM (inactive)		> 100 µM (inactive)	> 100 µM (inactive)	> 100 µM (inactive)	> 100 µM (inactive)	> 100 µM (inactive)	> 100 µM (inactive)		> 100 µM (inactive)	69 µM (inactive)
C/C(=N\NS(=O)(=O)c1ccc(C)cc1)P(=O)(O)O	> 100 µM (inactive)	> 100 µM (inactive)	> 100 µM (inactive)	> 100 µM (inactive)	> 100 µM (inactive)	> 100	> 100 µM (inactive)		> 100 µM (inactive)		> 100 µM (inactive)	> 100 µM (inactive)	> 100 µM (inactive)	> 100 µM (inactive)	> 100 µM (inactive)		> 100 µM (inactive)	> 100 µM (inactive)
COCCNc1cncc(C(N)=O)c1	> 100 µM (inactive)		> 100 µM (inactive)	> 100 µM (inactive)	> 100 µM (inactive)	> 100	> 100 µM (inactive)	> 100 µM (inactive)	> 100 µM (inactive)	> 100 µM (inactive)	> 100 µM (inactive)	> 100 µM (inactive)	> 100 µM (inactive)	> 100 µM (inactive)	65.6 µM (inactive)	> 100 µM (inactive)	> 100 µM (inactive)	87.9 µM (inactive)
N#Cc1c(-c2ccccc2)cc(-c2ccccc2)n(C2OCC(O)C(O)C2O)c1=S (stereo not drawn)	20.1 µM (inactive)	19 µM (inactive)	22.2 µM (inactive)	15.3 µM (inactive)	19.7 µM (inactive)	25.4	1.66 µM (inactive)		15.4 µM (inactive)	16.7 µM (inactive)	25.6 µM (inactive)	24.8 µM (inactive)	17.7 µM (inactive)	26.6 µM (inactive)	4.42 µM (inactive)		18.5 µM (inactive)	24.9 µM (inactive)
Cc1ccc(S(=O)(=O)NC(=O)Nc2ccc(C(=O)O)cc2)cc1	> 100 µM (inactive)		> 100 µM (inactive)	> 100 µM (inactive)	> 100 µM (inactive)	> 100	> 100 µM (inactive)	> 100 µM (inactive)	> 100 µM (inactive)	> 100 µM (inactive)	> 100 µM (inactive)	> 100 µM (inactive)	> 100 µM (inactive)	> 100 µM (inactive)	> 100 µM (inactive)		> 100 µM (inactive)	> 100 µM (inactive)
Cc1ccc(C(=O)/C(C#N)=C/Nc2c(C)n(C)n(-c3ccccc3)c2=O)cc1	> 100 µM (inactive)	> 100 µM (inactive)	> 100 µM (inactive)	> 100 µM (inactive)	> 100 µM (inactive)	> 100	> 100 µM (inactive)	> 100 µM (inactive)	> 100 µM (inactive)	> 100 µM (inactive)	> 100 µM (inactive)	> 100 µM (inactive)	> 100 µM (inactive)	> 100 µM (inactive)	> 100 µM (inactive)	> 100 µM (inactive)	> 100 µM (inactive)	
Clc1ccc(-c2nc(-c3ccc(Cl)cc3)[s+]s2)cc1	37.3 µM (inactive)	74.1 µM (inactive)	29.7 µM (inactive)	30.4 µM (inactive)	> 100 µM (inactive)	33.3	52.2 µM (inactive)		37.6 µM (inactive)	26.6 µM (inactive)	34 µM (inactive)	> 100 µM (inactive)	19.7 µM (inactive)	59.7 µM (inactive)	> 100 µM (inactive)	> 100 µM (inactive)	> 100 µM (inactive)	
COc1ccc2[nH]cc(CCNC(=O)[C@H](Cc3ccccc3)NC(=O)[C@@H](NCC(F)(F)F)C(C)C)c2c1	17.9 µM (inactive)	19.8 µM (inactive)	19 µM (inactive)	21.4 µM (inactive)	18.3 µM (inactive)	21.4	19.1 µM (inactive)	20.1 µM (inactive)	20.1 µM (inactive)	20.4 µM (inactive)	14.8 µM (inactive)	18.3 µM (inactive)	21.2 µM (inactive)	17.2 µM (inactive)			11.2 µM (inactive)	
N#Cc1nc(CCCN2C(=O)c3ccccc3C2=O)oc1N	> 100 µM (inactive)	> 100 µM (inactive)	> 100 µM (inactive)	> 100 µM (inactive)	> 100 µM (inactive)	> 100			> 100 µM (inactive)	> 100 µM (inactive)	> 100 µM (inactive)	> 100 µM (inactive)	> 100 µM (inactive)	> 100 µM (inactive)	> 100 µM (inactive)	> 100 µM (inactive)	> 100 µM (inactive)	
NCCSc1nc2ccccc2s1	28.8 µM (inactive)	23 µM (inactive)	17.3 µM (inactive)	21.7 µM (inactive)	33.9 µM (inactive)	42.9	31.3 µM (inactive)	73.5 µM (inactive)	36.1 µM (inactive)	34.9 µM (inactive)	23.8 µM (inactive)	38.3 µM (inactive)	41.5 µM (inactive)	> 100 µM (inactive)			23.4 µM (inactive)	22.8 µM (inactive)
CN(CC(=O)Nc1ccccc1C(=O)O)c1ccccc1	> 100 µM (inactive)		> 100 µM (inactive)	> 100 µM (inactive)	> 100 µM (inactive)	67.1		> 100 µM (inactive)	> 100 µM (inactive)	> 100 µM (inactive)	> 100 µM (inactive)	> 100 µM (inactive)	> 100 µM (inactive)	> 100 µM (inactive)	> 100 µM (inactive)	> 100 µM (inactive)	> 100 µM (inactive)	> 100 µM (inactive)
Cc1c(/C=N\NC(=S)NCCNC(=S)N/N=C\c2c(C)n(C)n(-c3ccccc3)c2=O)c(=O)n(-c2ccccc2)n1C		92.5 µM (inactive)	> 100 µM (inactive)	> 100 µM (inactive)	> 100 µM (inactive)	> 100	> 100 µM (inactive)		> 100 µM (inactive)	> 100 µM (inactive)	> 100 µM (inactive)	> 100 µM (inactive)			> 100 µM (inactive)	> 100 µM (inactive)	> 100 µM (inactive)	38 µM (inactive)
COC(=O)c1c2c(cc3c1CC1(Cc4cc5c(c(C)c4C1)CCC5)C3)CCC2 (stereo not drawn)	> 100 µM (inactive)	> 100 µM (inactive)	> 100 µM (inactive)	> 100 µM (inactive)	> 100 µM (inactive)	> 100		> 100 µM (inactive)	> 100 µM (inactive)	> 100 µM (inactive)	> 100 µM (inactive)	> 100 µM (inactive)	> 100 µM (inactive)	> 100 µM (inactive)	> 100 µM (inactive)	> 100 µM (inactive)	> 100 µM (inactive)	
Cc1ccc(C(=O)Nc2ccc(S(=O)(=O)O)c3cc(S(=O)(=O)O)cc(S(=O)(=O)O)c23)cc1NC(=S)Nc1cc(C(=O)Nc2ccc(S(=O)(=O)O)c3cc(S(=O)(=O)O)cc(S(=O)(=O)O)c23)ccc1C	> 75 µM (inactive)	> 75 µM (inactive)		> 75 µM (inactive)	> 75 µM (inactive)	> 75	> 75 µM (inactive)	> 75 µM (inactive)	> 75 µM (inactive)	> 75 µM (inactive)	> 75 µM (inactive)	> 75 µM (inactive)	> 75 µM (inactive)	> 75 µM (inactive)		> 75 µM (inactive)		> 75 µM (inactive)
COc1c(O)cc(O)c2c(=O)cc(-c3ccccc3)oc12 [WOGONIN]	35.6 µM (inactive)	65.5 µM (inactive)	42.5 µM (inactive)	63.2 µM (inactive)	23.6 µM (inactive)	35.1	35.1 µM (inactive)	21.5 µM (inactive)	26.2 µM (inactive)	36.1 µM (inactive)	21.7 µM (inactive)	49.7 µM (inactive)	29.4 µM (inactive)	> 100 µM (inactive)		35.2 µM (inactive)	34.5 µM (inactive)	56.1 µM (inactive)
